# Source: PubChem BioAssay (NCI)
#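 Assay format: 96-well plates, 48-hour exposure. GI50: concentration for 50% inhibition of growth. The concentration for full growth arrest is given as TGI.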
# Columns and labels:
# Assay in all cases: NCI tumour cell line growth inhibition, 48 h
# SF-295 CNS = test system: SF-295 CNS
# NCI-H23 lung = test system: NCI-H23 lung
# SN12C renal = test system: SN12C renal
# LOX IMVI melanoma = test system: LOX IMVI melanoma
# EKVX NSCLC = test system: EKVX NSCLC
# HT29 colon = test system: HT29 colon
# NCI-H226 lung = test system: NCI-H226 lung
# HCT-15 colon = test system: HCT-15 colon
# OVCAR-8 ovarian = test system: OVCAR-8 ovarian
# TK-10 renal = test system: TK-10 renal
# PC-3 prostate = test system: PC-3 prostate
# DMS 114 small cell lung = test system: DMS 114 small cell lung
# NCI-H460 lung = test system: NCI-H460 lung
# HOP-62 NSCLC = test system: HOP-62 NSCLC
# XF 498 CNS = test system: XF 498 CNS
# RXF 393 renal = test system: RXF 393 renal
# A549 NSCLC = test system: A549 NSCLC
# M19-MEL melanoma = test system: M19-MEL melanoma
# M14 melanoma = test system: M14 melanoma
# CCRF-CEM leukemia = test system: CCRF-CEM leukemia
# SW-620 colon = test system: SW-620 colon
# 786-0 renal = test system: 786-0 renal
# OVCAR-3 ovarian = test system: OVCAR-3 ovarian
# ACHN renal = test system: ACHN renal
# COLO 205 colon = test system: COLO 205 colon
# MALME-3M melanoma = test system: MALME-3M melanoma
# HOP-18 NSCLC = test system: HOP-18 NSCLC
# BT-549 breast = test system: BT-549 breast
# T-47D breast = test system: T-47D breast
# HS 578T breast = test system: HS 578T breast
# UACC-257 melanoma = test system: UACC-257 melanoma
# LXFL 529 NSCLC = test system: LXFL 529 NSCLC
# SK-OV-3 ovarian = test system: SK-OV-3 ovarian
# HOP-92 NSCLC = test system: HOP-92 NSCLC
# SNB-78 CNS = test system: SNB-78 CNS
# HCT-116 colon = test system: HCT-116 colon
# SK-MEL-28 melanoma = test system: SK-MEL-28 melanoma
# OVCAR-4 ovarian = test system: OVCAR-4 ovarian
# SK-MEL-5 melanoma = test system: SK-MEL-5 melanoma
# KM20L2 colon = test system: KM20L2 colon
# A498 renal = test system: A498 renal
# SNB-19 CNS = test system: SNB-19 CNS
# SR leukemia = test system: SR leukemia
# MDA-N = test system: MDA-N
# IGROV1 ovarian = test system: IGROV1 ovarian
# MCF7 breast = test system: MCF7 breast
# DU-145 prostate = test system: DU-145 prostate
# RPMI-8226 leukemia = test system: RPMI-8226 leukemia
# SF-539 CNS = test system: SF-539 CNS
# HL-60(TB) leukemia = test system: HL-60(TB) leukemia
# MDA-MB-231 breast = test system: MDA-MB-231 breast
# UO-31 renal = test system: UO-31 renal
# NCI-H522 lung = test system: NCI-H522 lung
# UACC-62 melanoma = test system: UACC-62 melanoma
# K-562 leukemia = test system: K-562 leukemia
# SNB-75 CNS = test system: SNB-75 CNS
# KM12 colon = test system: KM12 colon
# SF-268 CNS = test system: SF-268 CNS
# DMS 273 small cell lung = test system: DMS 273 small cell lung
# SK-MEL-2 melanoma = test system: SK-MEL-2 melanoma
# MOLT-4 leukemia = test system: MOLT-4 leukemia
# U251 CNS = test system: U251 CNS
# CAKI-1 renal = test system: CAKI-1 renal
# DLD-1 colon = test system: DLD-1 colon
# HCC-2998 colon = test system: HCC-2998 colon
# OVCAR-5 ovarian = test system: OVCAR-5 ovarian
# RXF-631 renal = test system: RXF-631 renal
structure (smiles),measurement,setting,value
Cc1ccc(C(=O)N2CCN(C(=O)c3ccc(C)cc3)c3ccccc32)cc1,TGI,SF-295 CNS,> 43.1 µM
same,TGI,NCI-H23 lung,> 100 µM
same,TGI,SN12C renal,> 100 µM
same,TGI,LOX IMVI melanoma,> 100 µM
same,TGI,EKVX NSCLC,> 100 µM
same,TGI,HT29 colon,21.3 µM
same,TGI,NCI-H226 lung,> 79.8 µM
same,TGI,HCT-15 colon,> 100 µM
same,TGI,OVCAR-8 ovarian,> 100 µM
same,TGI,TK-10 renal,> 100 µM
same,TGI,PC-3 prostate,> 100 µM
same,TGI,DMS 114 small cell lung,18 µM
same,TGI,NCI-H460 lung,> 100 µM
same,TGI,HOP-62 NSCLC,> 100 µM
same,TGI,XF 498 CNS,70 µM
same,TGI,RXF 393 renal,8.43 µM
same,TGI,A549 NSCLC,> 100 µM
same,TGI,M19-MEL melanoma,> 100 µM
same,TGI,M14 melanoma,> 100 µM
same,TGI,CCRF-CEM leukemia,> 100 µM
same,TGI,SW-620 colon,> 100 µM
same,TGI,786-0 renal,43.2 µM
same,TGI,OVCAR-3 ovarian,10.6 µM
same,TGI,ACHN renal,> 100 µM
same,TGI,COLO 205 colon,32.2 µM
same,TGI,MALME-3M melanoma,> 100 µM
same,TGI,HOP-18 NSCLC,> 100 µM
same,TGI,BT-549 breast,> 100 µM
same,TGI,T-47D breast,> 100 µM
same,TGI,HS 578T breast,29.8 µM
same,TGI,UACC-257 melanoma,> 100 µM
same,TGI,LXFL 529 NSCLC,> 100 µM
same,TGI,SK-OV-3 ovarian,25 µM
same,TGI,HOP-92 NSCLC,> 61.2 µM
same,TGI,SNB-78 CNS,> 100 µM
same,TGI,HCT-116 colon,> 62.6 µM
same,TGI,SK-MEL-28 melanoma,> 100 µM
same,TGI,OVCAR-4 ovarian,> 100 µM
same,TGI,SK-MEL-5 melanoma,43.5 µM
same,TGI,KM20L2 colon,> 32.6 µM
same,TGI,A498 renal,> 74.1 µM
same,TGI,SNB-19 CNS,> 100 µM
same,TGI,SR leukemia,> 100 µM
same,TGI,MDA-N,> 100 µM
same,TGI,IGROV1 ovarian,> 100 µM
same,TGI,MCF7 breast,> 100 µM
same,TGI,DU-145 prostate,> 100 µM
same,TGI,RPMI-8226 leukemia,> 58.2 µM
same,TGI,SF-539 CNS,11.9 µM
same,TGI,HL-60(TB) leukemia,4.21 µM
same,TGI,MDA-MB-231 breast,> 100 µM
same,TGI,UO-31 renal,> 56.6 µM
same,TGI,NCI-H522 lung,5.96 µM
same,TGI,UACC-62 melanoma,> 100 µM
same,TGI,K-562 leukemia,> 100 µM
same,TGI,SNB-75 CNS,> 100 µM
same,TGI,KM12 colon,> 100 µM
same,TGI,SF-268 CNS,> 100 µM
same,TGI,DMS 273 small cell lung,> 35.8 µM
same,TGI,SK-MEL-2 melanoma,> 39.6 µM
same,TGI,MOLT-4 leukemia,> 46.4 µM
same,TGI,U251 CNS,24.9 µM
same,TGI,CAKI-1 renal,82.7 µM
same,TGI,DLD-1 colon,> 100 µM
same,TGI,HCC-2998 colon,40.9 µM
same,TGI,OVCAR-5 ovarian,> 100 µM
CC(C)(c1ccc(Oc2ccc(C#N)c(C#N)c2)cc1)c1ccc(Oc2ccc(C#N)c(C#N)c2)cc1,GI50,SF-295 CNS,> 100 µM
same,TGI,SF-295 CNS,> 100 µM
same,GI50,NCI-H23 lung,> 100 µM
same,TGI,NCI-H23 lung,> 100 µM
same,GI50,SN12C renal,> 100 µM
same,TGI,SN12C renal,> 100 µM
same,GI50,LOX IMVI melanoma,> 100 µM
same,TGI,LOX IMVI melanoma,> 100 µM
same,GI50,EKVX NSCLC,> 100 µM
same,TGI,EKVX NSCLC,> 100 µM
same,GI50,HT29 colon,> 100 µM
same,TGI,HT29 colon,> 100 µM
same,GI50,OVCAR-8 ovarian,> 100 µM
same,TGI,OVCAR-8 ovarian,> 100 µM
same,GI50,TK-10 renal,> 100 µM
same,TGI,TK-10 renal,> 100 µM
same,GI50,DMS 114 small cell lung,> 100 µM
same,TGI,DMS 114 small cell lung,> 100 µM
same,GI50,NCI-H460 lung,> 100 µM
same,TGI,NCI-H460 lung,> 100 µM
same,GI50,HOP-62 NSCLC,> 100 µM
same,TGI,HOP-62 NSCLC,> 100 µM
same,GI50,RXF 393 renal,> 100 µM
same,TGI,RXF 393 renal,> 100 µM
same,GI50,A549 NSCLC,> 100 µM
same,TGI,A549 NSCLC,> 100 µM
same,GI50,M19-MEL melanoma,> 100 µM
same,TGI,M19-MEL melanoma,> 100 µM
same,GI50,M14 melanoma,> 100 µM
same,TGI,M14 melanoma,> 100 µM
same,GI50,CCRF-CEM leukemia,> 100 µM
same,TGI,CCRF-CEM leukemia,> 100 µM
same,TGI,SW-620 colon,> 100 µM
same,GI50,786-0 renal,> 100 µM
same,TGI,786-0 renal,> 100 µM
same,GI50,OVCAR-3 ovarian,> 100 µM
same,TGI,OVCAR-3 ovarian,> 100 µM
same,GI50,ACHN renal,> 100 µM
same,TGI,ACHN renal,> 100 µM
same,GI50,COLO 205 colon,> 100 µM
same,TGI,COLO 205 colon,> 100 µM
same,GI50,MALME-3M melanoma,> 100 µM
same,TGI,MALME-3M melanoma,> 100 µM
same,GI50,LXFL 529 NSCLC,> 100 µM
same,TGI,LXFL 529 NSCLC,> 100 µM
same,GI50,SK-OV-3 ovarian,> 100 µM
same,TGI,SK-OV-3 ovarian,> 100 µM
same,GI50,HOP-92 NSCLC,> 100 µM
same,TGI,HOP-92 NSCLC,> 100 µM
same,GI50,HCT-116 colon,> 100 µM
same,TGI,HCT-116 colon,> 100 µM
same,GI50,SK-MEL-28 melanoma,> 100 µM
same,TGI,SK-MEL-28 melanoma,> 100 µM
same,GI50,RXF-631 renal,> 100 µM
same,TGI,RXF-631 renal,> 100 µM
same,GI50,OVCAR-4 ovarian,> 100 µM
same,TGI,OVCAR-4 ovarian,> 100 µM
same,GI50,SK-MEL-5 melanoma,> 100 µM
same,TGI,SK-MEL-5 melanoma,> 100 µM
same,GI50,KM20L2 colon,> 100 µM
same,TGI,KM20L2 colon,> 100 µM
same,GI50,A498 renal,> 100 µM
same,TGI,A498 renal,> 100 µM
same,GI50,SNB-19 CNS,> 100 µM
same,TGI,SNB-19 CNS,> 100 µM
same,GI50,IGROV1 ovarian,> 100 µM
same,TGI,IGROV1 ovarian,> 100 µM
same,GI50,RPMI-8226 leukemia,> 100 µM
same,TGI,RPMI-8226 leukemia,> 100 µM
same,GI50,SF-539 CNS,> 100 µM
same,TGI,SF-539 CNS,> 100 µM
same,GI50,HL-60(TB) leukemia,> 100 µM
same,TGI,HL-60(TB) leukemia,> 100 µM
same,TGI,UO-31 renal,> 100 µM
same,GI50,NCI-H522 lung,> 100 µM
same,TGI,NCI-H522 lung,> 100 µM
same,GI50,UACC-62 melanoma,> 100 µM
same,TGI,UACC-62 melanoma,> 100 µM
same,GI50,K-562 leukemia,> 100 µM
same,TGI,K-562 leukemia,> 100 µM
same,TGI,SNB-75 CNS,89.2 µM
same,GI50,KM12 colon,> 100 µM
same,TGI,KM12 colon,> 100 µM
same,GI50,SF-268 CNS,> 100 µM
same,TGI,SF-268 CNS,> 100 µM
same,GI50,SK-MEL-2 melanoma,> 100 µM
same,TGI,SK-MEL-2 melanoma,> 100 µM
same,GI50,MOLT-4 leukemia,> 100 µM
same,TGI,MOLT-4 leukemia,> 100 µM
same,GI50,U251 CNS,> 100 µM
same,TGI,U251 CNS,> 100 µM
same,GI50,CAKI-1 renal,> 100 µM
same,TGI,CAKI-1 renal,> 100 µM
same,GI50,DLD-1 colon,> 100 µM
same,TGI,DLD-1 colon,> 100 µM
same,GI50,HCC-2998 colon,> 100 µM
same,TGI,HCC-2998 colon,> 100 µM
same,GI50,OVCAR-5 ovarian,> 100 µM
same,TGI,OVCAR-5 ovarian,> 100 µM
